Test results from patent US20240050576A1, “METHODS AND COMPOUNDS FOR THE TREATMENT OF GENETIC DISEASE” (Design Therapeutics, Inc., priority 2020, published 2024).

system: human FXN; assay: FXN mRNA expression by qRT-PCR in GM15850 cells after 48 hr compound treatment; assay type: cell-based; details: GM15850 cells, 48 hr incubation, hFXN normalized to hGAPDH; read-out: EC50 WT (nM, 48 hr)
Experimental: Cell culture: Cells were cultured in RPMI1640 medium+15% FBS. Cells were maintained at a density between 2e5/mL and 1e6/mL. Cells were centrifuged, resuspended in fresh medium, counted and plated at 150,000 cells per well in 100 uL in a non-coated, flat bottom tissue culture plate.
Compound treatment: 10 mM stock solution of FA GeneTAC was diluted 1:10 in DMSO followed by a 1:100 dilution in growth medium. […] Compound was then diluted at a 1:3 ratio into growth medium containing 0.01% DMSO. 5-point, 3-fold dose response curve was generated. 11 μL of 10× compound was added to wells containing 100 μL cell suspension of GM15850. 11 μL growth medium containing 0.01% DMSO was added to all wells not treated with FA GeneTAC. Cells were allowed to incubate for 48 hrs prior to cell lysis using guanidine isothiocyanate solution.
RNA isolation: Total RNA was isolated and purified in 384-well column filter plates using chaotropic salt.
qRT-PCR: qRT-PCR reactions were assembled using AgPath-ID reagents (Thermo Fisher) using 6 uL mastermix and 4 μL RNA. qRT-PCR TaqMan primer probe sets against human FXN (Assay ID Hs01075496_m1) and human GAPDH (Assay ID Hs00266705_g1) were used to measure the intended targets. qRT-PCR was run on the ThermoFisher QuantStudio 6 PRO instrument using the manufacturer's recommended cycling conditions.
Data analysis: qPCR data was analyzed using Thermo Fisher Design and Analysis software. Data was exported to Excel and hFXN expression was normalized to hGAPDH expression.

Row | Structure (SMILES) | EC50 [nM]
1 | CC(=O)N1c2ccc(C3=CCN(C(=O)COCCOCCOCCOCCOCCC(=O)NCCCN(C)CCCNC(=O)CCNC(=O)c4nc(NC(=O)CCNC(=O)c5cc(NC(=O)c6nc(NC(=O)CCNC(=O)c7cc(NC(=O)c8nccn8C)cn7C)cn6C)cn5C)cn4C)CC3)cc2N(Cc2ccccc2CO)C[C@@H]1C1CC1 [Compound 29] | 100 to 500
2 | Cc1sc2c(c1C)C(c1ccc(Cl)cc1)=N[C@@H](CC(=O)Nc1ccc(OCCOCCOCCOCCOCCOCCC(=O)NCCCN(CCCNC(=O)CCNC(=O)c3nc(NC(=O)CCNC(=O)c4cc(NC(=O)c5nc(NC(=O)CCNC(=O)c6cc(NC(=O)c7nccn7C)cn6C)cn5C)cn4C)cn3C)CC(F)(F)F)cc1)c1nnc(C)n1-2 [Compound 38] | < 100

same assay, conditions: Homo sapiens; GM15850 cells, 48 hr incubation, hFXN normalized to hGAPDH; read-out: EC50 WT (nM, 48 hr)

Row | Structure (SMILES) | EC50 [nM]
3 | Cc1sc2c(c1C)C(c1ccc(Cl)cc1)=N[C@@H](CC(=O)Nc1ccc(OCCOCCOCCOCCOCCOCCC(=O)NCCCN(C)CCCNC(=O)CCNC(=O)c3nc(NC(=O)CCNC(=O)c4cc(NC(=O)c5nc(NC(=O)CCNC(=O)c6cc(NC(=O)c7nccn7C)cn6C)cn5C)cn4C)cn3C)cc1)c1nnc(C)n1-2 [Compound 3] | 100 to 500
4 | COc1ccc2c(c1)C(c1ccc(Cl)cc1)=N[C@@H](CC(=O)Nc1ccc(OCCOCCOCCOCCOCCOCCC(=O)NCCCN(C)CCCNC(=O)CCNC(=O)c3nc(NC(=O)CCNC(=O)c4cc(NC(=O)c5nc(NC(=O)CCNC(=O)c6cc(NC(=O)c7nccn7C)cn6C)cn5C)cn4C)cn3C)cc1)c1nnc(C)n1-2 [Compound 6] | 100 to 500
5 | Cc1noc(C)c1-c1cnc2c(-c3ccc(C(=O)NCCOCCOCCOCCOCCOCCC(=O)NCCCN(C)CCCNC(=O)CCNC(=O)c4nc(NC(=O)CCNC(=O)c5cc(NC(=O)c6nc(NC(=O)CCNC(=O)c7cc(NC(=O)c8nccn8C)cn7C)cn6C)cn5C)cn4C)cc3)cn([C@@H](C)c3ccccn3)c2c1 [Compound 8] | < 100
6 | Cc1cc(-c2nc3cnc(C4CCN(CCOCCOCCOCCOCCOCCC(=O)NCCCN(C)CCCNC(=O)CCNC(=O)c5nc(NC(=O)CCNC(=O)c6cc(NC(=O)c7nc(NC(=O)CCNC(=O)c8cc(NC(=O)c9nccn9C)cn8C)cn7C)cn6C)cn5C)CC4)cc3n2[C@@H](C)c2ccccc2)nn(C)c1=O [Compound 9] | 100 to 500
7 | COC[C@@H](C)n1c(C2CCN(CCOCCOCCOCCOCCOCCC(=O)NCCCN(C)CCCNC(=O)CCNC(=O)c3nc(NC(=O)CCNC(=O)c4cc(NC(=O)c5nc(NC(=O)CCNC(=O)c6cc(NC(=O)c7nccn7C)cn6C)cn5C)cn4C)cn3C)CC2)nc2cnc3cc(-c4c(C)noc4C)c(OC)cc3c21 [Compound 10] | 100 to 500
8 | COc1ccc2c(c1)C(c1ccc(Cl)cc1)=N[C@H](CC(=O)Nc1ccc(OCCOCCOCCOCCOCCOCCC(=O)NCCCN(C)CCCNC(=O)CCNC(=O)c3nc(NC(=O)CCNC(=O)c4cc(NC(=O)c5nc(NC(=O)CCNC(=O)c6cc(NC(=O)c7nccn7C)cn6C)cn5C)cn4C)cn3C)cc1)c1nnc(C)n1-2 [Compound 11] | > 500
9 | Cc1sc2c(c1C)C(c1ccc(Cl)cc1)=N[C@@H](CC(=O)Nc1ccc(OCCOCCOCCOCCOCCOCCOCCOCCOCCNC(=O)CCNC(=O)c3nc(NC(=O)CCNC(=O)c4cc(NC(=O)c5nc(NC(=O)CCNC(=O)c6cc(NC(=O)c7nccn7C)cn6C)cn5C)cn4C)cn3C)cc1)c1nnc(C)n1-2 [Compound 13] | < 100
10 | Cc1sc2c(c1C)C(c1ccc(Cl)cc1)=N[C@@H](CC(=O)Nc1ccc(OCCOCCOCCOCCOCCOCCC(=O)NCCCN(C)CCCNC(=O)c3cc(NC(=O)c4nc(NC(=O)CCNC(=O)c5cc(NC(=O)c6nc(NC(=O)CCNC(=O)c7cc(NC(=O)c8nccn8C)cn7C)cn6C)cn5C)cn4C)cn3C)cc1)c1nnc(C)n1-2 [Compound 16] | 100 to 500
11 | Cc1sc2c(c1C)C(c1ccc(Cl)cc1)=N[C@@H](CC(=O)Nc1ccc(OCCOCCOCCOCCOCCOCCOCCOCC(=O)NCCNC(=O)CCNC(=O)c3nc(NC(=O)CCNC(=O)c4cc(NC(=O)c5nc(NC(=O)CCNC(=O)c6cc(NC(=O)c7nccn7C)cn6C)cn5C)cn4C)cn3C)cc1)c1nnc(C)n1-2 [Compound 17] | < 100
12 | Cc1cc(-c2nc3cnc(C4CCN(C(=O)COCCOCCOCCOCCOCCC(=O)NCCCN(C)CCCNC(=O)CCNC(=O)c5nc(NC(=O)CCNC(=O)c6cc(NC(=O)c7nc(NC(=O)CCNC(=O)c8cc(NC(=O)c9nccn9C)cn8C)cn7C)cn6C)cn5C)CC4)cc3n2[C@@H](C)c2ccccc2)nn(C)c1=O [Compound 19] | < 100
13 | COC[C@@H](C)n1c(C2CCN(C(=O)COCCOCCOCCOCCOCCC(=O)NCCCN(C)CCCNC(=O)CCNC(=O)c3nc(NC(=O)CCNC(=O)c4cc(NC(=O)c5nc(NC(=O)CCNC(=O)c6cc(NC(=O)c7nccn7C)cn6C)cn5C)cn4C)cn3C)CC2)nc2cnc3cc(-c4c(C)noc4C)c(OC)cc3c21 [Compound 20] | 100 to 500
14 | Cc1sc2c(c1C)C(c1ccc(Cl)cc1)=N[C@@H](CC(=O)Nc1ccc(OCCOCCOCCOCCOCCOCCNC(=O)CCNC(=O)c3nc(NC(=O)CCNC(=O)c4cc(NC(=O)c5nc(NC(=O)CCNC(=O)c6cc(NC(=O)c7nccn7C)cn6C)cn5C)cn4C)cn3C)cc1)c1nnc(C)n1-2 [Compound 21] | 100 to 500
15 | Cc1sc2c(c1C)C(c1ccc(Cl)cc1)=N[C@@H](CC(=O)Nc1ccc(OCCOCCOCCOCCOCCOCCOCCNC(=O)CCNC(=O)c3nc(NC(=O)CCNC(=O)c4cc(NC(=O)c5nc(NC(=O)CCNC(=O)c6cc(NC(=O)c7nccn7C)cn6C)cn5C)cn4C)cn3C)cc1)c1nnc(C)n1-2 [Compound 22] | 100 to 500
16 | Cc1sc2c(c1C)C(c1ccc(Cl)cc1)=N[C@@H](CC(=O)Nc1ccc(OCCOCCOCCOCCOCCOCCOCCOCCNC(=O)CCNC(=O)c3nc(NC(=O)CCNC(=O)c4cc(NC(=O)c5nc(NC(=O)CCNC(=O)c6cc(NC(=O)c7nccn7C)cn6C)cn5C)cn4C)cn3C)cc1)c1nnc(C)n1-2 [Compound 23] | 100 to 500
17 | Cc1sc2c(c1C)C(c1ccc(Cl)cc1)=N[C@@H](CC(=O)Nc1ccc(OCCOCCOCCOCCOCCOCCOCCOCCOCCOCCNC(=O)CCNC(=O)c3nc(NC(=O)CCNC(=O)c4cc(NC(=O)c5nc(NC(=O)CCNC(=O)c6cc(NC(=O)c7nccn7C)cn6C)cn5C)cn4C)cn3C)cc1)c1nnc(C)n1-2 [Compound 24] | < 100
18 | COc1ccc2c(c1)C(c1ccc(Cl)cc1)=N[C@@H](CC(=O)Nc1ccc(OCCOCCOCCOCCOCCOCCOCCOCCOCCNC(=O)CCNC(=O)c3nc(NC(=O)CCNC(=O)c4cc(NC(=O)c5nc(NC(=O)CCNC(=O)c6cc(NC(=O)c7nccn7C)cn6C)cn5C)cn4C)cn3C)cc1)c1nnc(C)n1-2 [Compound 25] | 100 to 500
19 | COc1ccc2c(c1)C(c1ccc(Cl)cc1)=N[C@H](CC(=O)Nc1ccc(OCCOCCOCCOCCOCCOCCOCCOCCOCCNC(=O)CCNC(=O)c3nc(NC(=O)CCNC(=O)c4cc(NC(=O)c5nc(NC(=O)CCNC(=O)c6cc(NC(=O)c7nccn7C)cn6C)cn5C)cn4C)cn3C)cc1)c1nnc(C)n1-2 [Compound 26] | 100 to 500
20 | CC(=O)N1c2ccc(-c3cnc(C(=O)NCCOCCOCCOCCOCCOCCC(=O)NCCCN(C)CCCNC(=O)CCNC(=O)c4nc(NC(=O)CCNC(=O)c5cc(NC(=O)c6nc(NC(=O)CCNC(=O)c7cc(NC(=O)c8nccn8C)cn7C)cn6C)cn5C)cn4C)nc3)cc2N(Cc2ccccc2CO)C[C@@H]1C1CC1 [Compound 30] | > 500
21 | CC(=O)N1c2ccc(-c3ccc(C(=O)NCCOCCOCCOCCOCCOCCC(=O)NCCCN(C)CCCNC(=O)CCNC(=O)c4nc(NC(=O)CCNC(=O)c5cc(NC(=O)c6nc(NC(=O)CCNC(=O)c7cc(NC(=O)c8nccn8C)cn7C)cn6C)cn5C)cn4C)cc3)cc2[C@H](Nc2ccc(Cl)cc2)C[C@@H]1C [Compound 31] | < 100
22 | Cc1sc2c(c1C)C(c1ccc(Cl)cc1)=N[C@@H](CC(=O)Nc1ccc(OCCOCCOCCOCCOCCOCCOCCOCCOCCNC(=O)CCNC(=O)c3cc(NC(=O)c4nc(NC(=O)CCNC(=O)c5cc(NC(=O)c6nc(NC(=O)CCNC(=O)c7cc(NC(=O)c8nccn8C)cn7C)cn6C)cn5C)cn4C)cn3C)cc1)c1nnc(C)n1-2 [Compound 33] | 100 to 500
23 | CC(=O)N1c2ccc(-c3ccc(C(=O)NCCOCCOCCOCCOCCOCCOCCOCCNC(=O)CCNC(=O)c4nc(NC(=O)CCNC(=O)c5cc(NC(=O)c6nc(NC(=O)CCNC(=O)c7cc(NC(=O)c8nccn8C)cn7C)cn6C)cn5C)cn4C)cc3)cc2[C@H](Nc2ccc(Cl)cc2)C[C@@H]1C [Compound 35, N-(5-((3-((2-((1-(4-((2S,4R)-1-acetyl-4-((4-chlorophenyl)amino)-2-methyl-1,2,3,4-tetrahydroquinolin-6-yl)phenyl)-1,27-dioxo-5,8,11,14,17,20,23-heptaoxa-2,26-diazanonacosan-29-yl)carbamoyl)-1-methyl-1H-imidazol-4-yl)amino)-3-oxopropyl)carbamoyl)-1-methyl-1H-pyrrol-3-yl)-1-methyl-4-(3-(1-methyl-4-(1-methyl-1H-imidazole-2-carboxamido)-1H-pyrrole-2-carboxamido)propanamido)-1H-imidazole-2-carboxamide] | < 100
24 | CC(=O)N1c2ccc(-c3ccc(C(=O)NCCOCCOCCOCCOCCOCCOCCOCCOCCNC(=O)CCNC(=O)c4nc(NC(=O)CCNC(=O)c5cc(NC(=O)c6nc(NC(=O)CCNC(=O)c7cc(NC(=O)c8nccn8C)cn7C)cn6C)cn5C)cn4C)cc3)cc2[C@H](Nc2ccc(Cl)cc2)C[C@@H]1C [Compound 36] | < 100
